# pIC50: −log10 of the molar value.
# Legend:
# Type in all cases: cell-based
# [1] = biological target: T1, human TLR7 (Homo sapiens, UniProt Q9NYK1); test: TLR7/8/9 Inhibition Reporter Assays (TLR7); settings: HEK-Blue cells overexpressing human TLR7, SEAP reporter, stimulated with TLR7 ligand gardiquimod
# T1 construct: host or cells: HEK-Blue cells (HEK293-derived reporter line)
# T1 sequence (Q9NYK1 27-1049): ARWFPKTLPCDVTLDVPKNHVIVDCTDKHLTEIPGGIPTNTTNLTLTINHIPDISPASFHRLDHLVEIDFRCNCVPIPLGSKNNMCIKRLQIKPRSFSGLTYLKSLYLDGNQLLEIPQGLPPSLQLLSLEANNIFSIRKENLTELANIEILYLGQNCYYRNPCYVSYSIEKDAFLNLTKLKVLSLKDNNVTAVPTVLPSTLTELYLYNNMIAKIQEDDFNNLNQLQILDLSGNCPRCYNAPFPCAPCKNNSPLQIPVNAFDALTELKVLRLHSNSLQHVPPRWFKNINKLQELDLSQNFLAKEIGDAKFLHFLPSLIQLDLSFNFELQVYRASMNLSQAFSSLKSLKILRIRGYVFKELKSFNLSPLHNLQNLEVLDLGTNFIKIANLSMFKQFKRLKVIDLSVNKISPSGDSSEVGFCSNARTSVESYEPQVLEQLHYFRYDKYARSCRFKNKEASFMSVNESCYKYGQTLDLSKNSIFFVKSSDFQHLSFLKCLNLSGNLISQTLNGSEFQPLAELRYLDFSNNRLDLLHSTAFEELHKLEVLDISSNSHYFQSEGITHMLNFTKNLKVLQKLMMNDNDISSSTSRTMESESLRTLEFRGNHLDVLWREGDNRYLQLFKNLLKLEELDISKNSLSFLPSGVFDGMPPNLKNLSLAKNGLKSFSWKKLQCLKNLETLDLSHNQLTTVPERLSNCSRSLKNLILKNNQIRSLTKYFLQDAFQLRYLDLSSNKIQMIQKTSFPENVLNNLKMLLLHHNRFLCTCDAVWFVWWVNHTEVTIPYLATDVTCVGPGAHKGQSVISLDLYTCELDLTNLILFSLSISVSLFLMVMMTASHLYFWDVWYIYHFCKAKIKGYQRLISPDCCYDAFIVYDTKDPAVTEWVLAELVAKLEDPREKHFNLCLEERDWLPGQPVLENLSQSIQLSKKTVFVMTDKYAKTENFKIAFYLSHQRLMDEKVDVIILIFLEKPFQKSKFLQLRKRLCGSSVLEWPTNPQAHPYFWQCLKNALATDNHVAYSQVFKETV
# Protocol: (§1) HEK-Blue™-cells (Invivogen) overexpressing human TLR7, TLR8 or TLR9 receptors were used for screening inhibitors of these receptors using an inducible SEAP (secreted embryonic alkaline phosphatase) reporter gene under the control of the IFN-β minimal promoter fused to five NF-κB and AP-1-binding sites. Cells are seeded into Greiner 384 well plates (15000 cells per well) that are predispensed (by ECHO) with testing compounds in DMSO to yield a final dose response concentration range of 0.85 nM-[…]. After a 60 minute compound pre-treatment in 37° C. incubator, the cells are then stimulated with a TLR7 ligand (gardiquimod at a final concentration of […]), TLR8 ligand (R848 at a final concentration of […]) or TLR9 ligand (ODN2006 at a final concentration of 200 nM) to activate NF-κB and AP-1 which induce the production of SEAP. After a 22 hour incubation at 37° C., 5% CO2, SEAP levels are determined with the addition of HEK-Blue™ Detection reagent (Invivogen), a cell culture medium that allows for detection of SEAP, according to manufacturer's specifications. The percent inhibition is determined as the % reduction in the HEK-Blue signal present in wells treated with agonist plus DMSO alone compared to wells treated with a known inhibitor.
# [2] = biological target: T2, human TLR8 (Homo sapiens, UniProt Q9NR97); test: TLR7/8/9 Inhibition Reporter Assays (TLR8); settings: HEK-Blue cells overexpressing human TLR8, SEAP reporter, stimulated with TLR8 ligand R848
# T2 construct: host or cells: HEK-Blue cells (HEK293-derived reporter line)
# T2 sequence (Q9NR97 27-1041): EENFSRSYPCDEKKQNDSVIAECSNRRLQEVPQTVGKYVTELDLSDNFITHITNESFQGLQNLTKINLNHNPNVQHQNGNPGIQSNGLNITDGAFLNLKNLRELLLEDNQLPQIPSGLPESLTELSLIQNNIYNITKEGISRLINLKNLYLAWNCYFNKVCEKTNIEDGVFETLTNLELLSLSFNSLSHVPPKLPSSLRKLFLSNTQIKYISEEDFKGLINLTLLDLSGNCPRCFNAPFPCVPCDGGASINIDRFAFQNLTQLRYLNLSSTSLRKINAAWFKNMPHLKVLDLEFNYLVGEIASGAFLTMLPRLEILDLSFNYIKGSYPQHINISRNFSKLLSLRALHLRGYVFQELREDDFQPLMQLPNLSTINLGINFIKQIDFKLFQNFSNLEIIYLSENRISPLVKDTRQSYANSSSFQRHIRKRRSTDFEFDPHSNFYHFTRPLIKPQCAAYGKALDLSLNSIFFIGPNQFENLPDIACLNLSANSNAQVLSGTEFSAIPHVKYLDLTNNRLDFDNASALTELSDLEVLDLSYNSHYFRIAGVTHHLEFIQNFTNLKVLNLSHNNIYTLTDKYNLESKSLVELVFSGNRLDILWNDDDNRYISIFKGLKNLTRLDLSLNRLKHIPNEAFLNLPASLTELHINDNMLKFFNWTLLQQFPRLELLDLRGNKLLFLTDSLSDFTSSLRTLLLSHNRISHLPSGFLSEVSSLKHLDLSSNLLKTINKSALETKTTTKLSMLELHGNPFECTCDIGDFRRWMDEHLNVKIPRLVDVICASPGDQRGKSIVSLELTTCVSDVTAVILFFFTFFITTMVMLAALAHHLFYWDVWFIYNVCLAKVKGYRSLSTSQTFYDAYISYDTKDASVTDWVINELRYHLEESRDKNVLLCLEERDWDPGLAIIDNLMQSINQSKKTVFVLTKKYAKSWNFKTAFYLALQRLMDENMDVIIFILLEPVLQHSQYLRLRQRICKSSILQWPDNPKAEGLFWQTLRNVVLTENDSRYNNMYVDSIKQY
# Protocol: as §1
# [3] = biological target: T3, human TLR9 (Homo sapiens, UniProt Q9NR96); test: TLR7/8/9 Inhibition Reporter Assays (TLR9); settings: HEK-Blue cells overexpressing human TLR9, SEAP reporter, stimulated with TLR9 ligand ODN2006
# T3 construct: host or cells: HEK-Blue cells (HEK293-derived reporter line)
# T3 sequence (Q9NR96 26-1032): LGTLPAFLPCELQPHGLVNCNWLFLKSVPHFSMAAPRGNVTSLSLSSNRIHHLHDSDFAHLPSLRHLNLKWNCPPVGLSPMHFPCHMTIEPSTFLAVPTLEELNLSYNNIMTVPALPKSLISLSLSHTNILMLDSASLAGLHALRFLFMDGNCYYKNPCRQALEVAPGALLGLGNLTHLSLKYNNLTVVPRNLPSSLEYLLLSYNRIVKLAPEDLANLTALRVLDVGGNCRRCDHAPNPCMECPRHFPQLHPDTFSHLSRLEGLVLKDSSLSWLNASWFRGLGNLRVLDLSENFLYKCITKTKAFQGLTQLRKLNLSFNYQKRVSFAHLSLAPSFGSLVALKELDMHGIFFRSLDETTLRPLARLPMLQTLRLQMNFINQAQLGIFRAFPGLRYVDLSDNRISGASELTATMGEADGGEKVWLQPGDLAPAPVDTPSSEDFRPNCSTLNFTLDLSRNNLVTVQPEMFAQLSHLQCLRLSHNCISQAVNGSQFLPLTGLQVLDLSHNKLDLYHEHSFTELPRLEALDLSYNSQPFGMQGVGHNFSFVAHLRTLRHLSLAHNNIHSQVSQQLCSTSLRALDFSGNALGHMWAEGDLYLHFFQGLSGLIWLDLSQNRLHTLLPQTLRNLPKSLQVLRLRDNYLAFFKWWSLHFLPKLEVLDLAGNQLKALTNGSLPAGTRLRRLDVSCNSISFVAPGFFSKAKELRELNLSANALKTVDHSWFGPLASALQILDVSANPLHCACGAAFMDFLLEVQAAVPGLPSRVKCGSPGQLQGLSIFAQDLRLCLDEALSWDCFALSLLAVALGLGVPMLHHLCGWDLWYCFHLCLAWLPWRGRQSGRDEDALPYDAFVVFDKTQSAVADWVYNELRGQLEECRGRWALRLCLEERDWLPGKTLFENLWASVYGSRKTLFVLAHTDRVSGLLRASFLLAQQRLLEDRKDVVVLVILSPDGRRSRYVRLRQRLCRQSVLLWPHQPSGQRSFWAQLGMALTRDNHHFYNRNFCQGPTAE
# Protocol: as §1
pIC50 [1],pIC50 [2],pIC50 [3],SMILES
4.96,< 4.60,6.51,"Cc1nc(-c2ccc(C3CCN(C4CCOCC4)CC3)cc2)cc2c1nc(-c1ccc(S(C)(=O)=O)cc1)n2C [Example 28, 1,4-dimethyl-2-(4-(methylsulfonyl)phenyl)-6-(4-(1-(tetrahydro-2H-pyran-4-yl)piperidin-4-yl)phenyl)-1H-imidazo[4,5-c]pyridine]"
< 4.60,< 4.60,5.85,"CC(C)N1CCC(N2CCC(c3cc4c(cn3)nc(-c3ccc(S(C)(=O)=O)cc3)n4C)CC2)CC1 [Example 30, 6-(1′-isopropyl-[1,4′-bipiperidin]-4-yl)-1-methyl-2-(4-(methylsulfonyl)phenyl)-1H-imidazo[4,5-c]pyridine]"
5.32,< 4.60,6.62,"CC(C)CN1CCC(N2CCC(c3cc4c(cn3)nc(-c3ccc(S(C)(=O)=O)cc3)n4C)CC2)CC1 [Example 31, 6-(1′-isobutyl-[1,4′-bipiperidin]-4-yl)-1-methyl-2-(4-(methylsulfonyl)phenyl)-1H-imidazo[4,5-c]pyridine]"
5.85,< 4.30,6.23,"CC(C)CN1CCC(N2CCC(c3cc4c(nc(-c5ccc(S(C)(=O)=O)cc5)n4C)c(C(F)(F)F)n3)CC2)CC1 [Example 33, 6-(1′-isobutyl-[1,4′-bipiperidin]-4-yl)-1-methyl-2-(4-(methylsulfonyl)phenyl)-4-(trifluoromethyl)-1H-imidazo[4,5-c]pyridine]"
5.46,< 4.30,6.89,"Cn1c(-c2ccc(S(C)(=O)=O)cc2)nc2c(C(F)(F)F)nc(C3CCN(C4CCN(CC(C)(C)O)CC4)CC3)cc21 [Example 34, 2-methyl-1-(4-(1-methyl-2-(4-(methylsulfonyl)phenyl)-4-(trifluoromethyl)-1H-imidazo[4,5-c]pyridin-6-yl)-[1,4′-bipiperidin]-1′-yl)propan-2-ol]"
5.48,< 4.30,6.80,"CC(C)N1CCC(N2CC=C(c3cc4c(nc(-c5ccc(S(C)(=O)=O)cc5)n4C)c(C(F)(F)F)n3)CC2)CC1 [Example 35, 6-(1-(1-isopropylpiperidin-4-yl)-1,2,3,6-tetrahydropyridin-4-yl)-1-methyl-2-(4-(methylsulfonyl)phenyl)-4-(trifluoromethyl)-1H-imidazo[4,5-c]pyridine]"

# Continued, molecule first:
SMILES,pIC50 [1],pIC50 [2],pIC50 [3]
"Cc1nc(-c2ccc(C3CCN(C)CC3)cc2)cc2c1nc(-c1ccc(S(C)(=O)=O)cc1)n2C [Example 26, 1,4-dimethyl-6-(4-(1-methylpiperidin-4-yl)phenyl)-2-(4-(methylsulfonyl)phenyl)-1H-imidazo[4,5-c]pyridine]",5.21,4.39,6.64
"Cc1nc(-c2ccc(C3CCNCC3)cc2)cc2c1nc(-c1ccc(S(C)(=O)=O)cc1)n2C [Example 27, 1,4-dimethyl-2-(4-(methylsulfonyl)phenyl)-6-(4-(piperidin-4-yl)phenyl)-1H-imidazo[4,5-c]pyridine]",4.70,4.34,5.96
"Cc1nc(-c2ccc(C3CCN(CC4COC4)CC3)cc2)cc2c1nc(-c1ccc(S(C)(=O)=O)cc1)n2C [Example 29, 1,4-dimethyl-2-(4-(methylsulfonyl)phenyl)-6-(4-(1-(oxetan-3-ylmethyl)piperidin-4-yl)phenyl)-1H-imidazo[4,5-c]pyridine]",4.89,< 4.30,5.96
"CC(C)CN1CCC(N2CC=C(c3cc4c(nc(-c5ccc(S(C)(=O)=O)cc5)n4C)c(C(F)(F)F)n3)CC2)CC1 [Example 36, 6-(1-(1-isobutylpiperidin-4-yl)-1,2,3,6-tetrahydropyridin-4-yl)-1-methyl-2-(4-(methylsulfonyl)phenyl)-4-(trifluoromethyl)-1H-imidazo[4,5-c]pyridine]",5.39,< 4.30,6.48
"Cn1c(-c2ccc(S(C)(=O)=O)cc2)nc2c(C(F)(F)F)nc(C3=CCN(C4CCN(CC(C)(C)O)CC4)CC3)cc21 [Example 37, 2-methyl-1-(4-(4-(1-methyl-2-(4-(methylsulfonyl)phenyl)-4-(trifluoromethyl)-1H-imidazo[4,5-c]pyridin-6-yl)-3,6-dihydropyridin-1(2H)-yl)piperidin-1-yl)propan-2-ol]",4.89,< 4.30,5.96

# From patent US20250163054A1, “SUBSTITUTED BICYCLIC HETEROARYL COMPOUNDS USEFUL AS INHIBITORS OF TLR9” (Bristol-Myers Squibb Company, priority 2022, published 2025)
